According to PubChem BioAssay (NCI):
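Grown in 96-well plates, cells were treated for 48 hours with each compound at five concentrations. Insufficient inhibition: endpoint recorded as highest concentration tested. TGI is the concentration that stops growth completely.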 Where a SMILES comes first, the peptide text is derived from it. The star is where a group is joined. Boc = CC(C)(C)OC(=O)*; Bz = O=C(c1ccccc1)*

What was measured:
Test in all cases: NCI tumour cell line growth inhibition, 48 h
OVCAR-3 ovarian = tested on: OVCAR-3 ovarian
HT29 colon = tested on: HT29 colon
U251 CNS = tested on: U251 CNS
CCRF-CEM leukemia = tested on: CCRF-CEM leukemia
HOP-92 NSCLC = tested on: HOP-92 NSCLC
NCI-H226 lung = tested on: NCI-H226 lung
UACC-62 melanoma = tested on: UACC-62 melanoma
OVCAR-5 ovarian = tested on: OVCAR-5 ovarian
SK-OV-3 ovarian = tested on: SK-OV-3 ovarian
TK-10 renal = tested on: TK-10 renal
HL-60(TB) leukemia = tested on: HL-60(TB) leukemia
A549 NSCLC = tested on: A549 NSCLC
RPMI-8226 leukemia = tested on: RPMI-8226 leukemia
DU-145 prostate = tested on: DU-145 prostate
SW-620 colon = tested on: SW-620 colon
MOLT-4 leukemia = tested on: MOLT-4 leukemia
NCI-H460 lung = tested on: NCI-H460 lung
SF-539 CNS = tested on: SF-539 CNS
RXF 393 renal = tested on: RXF 393 renal

| SMILES | TGI (OVCAR-3 ovarian) [µM] | TGI (HT29 colon) [µM] | TGI (U251 CNS) [µM] | TGI (CCRF-CEM leukemia) [µM] | TGI (HOP-92 NSCLC) [µM] | TGI (NCI-H226 lung) [µM] | TGI (UACC-62 melanoma) [µM] | TGI (OVCAR-5 ovarian) [µM] | TGI (SK-OV-3 ovarian) [µM] | TGI (TK-10 renal) [µM] | TGI (HL-60(TB) leukemia) [µM] | TGI (A549 NSCLC) [µM] | TGI (RPMI-8226 leukemia) [µM] | TGI (DU-145 prostate) [µM] | TGI (SW-620 colon) [µM] | TGI (MOLT-4 leukemia) [µM] | TGI (NCI-H460 lung) [µM] | TGI (SF-539 CNS) [µM] | TGI (RXF 393 renal) [µM] |
| --- | --- | --- | --- | --- | --- | --- | --- | --- | --- | --- | --- | --- | --- | --- | --- | --- | --- | --- | --- |
| COc1ccc(/C=C2\CCCC(CN(C)C)C2=O)cc1 (stereo not drawn) | 4.99 | 3.47 | 3.88 | > 100 | 8.99 | 33.5 | 4.13 | 23.2 | 23.4 | 9.45 | 4.62 | 33.9 | 0.433 | 30.2 | 2.39 | 2.56 | 48.4 | 31.1 |  |
| CC1(C)[C@H](C(=O)O)N2C(=O)[C@@H](NS(=O)(=O)c3ccc([N+](=O)[O-])cc3)[C@H]2S1(=O)=O | > 100 | > 100 | > 100 | > 100 | > 100 | > 100 | > 100 | > 100 | > 100 | > 100 | > 100 | > 100 |  | > 100 | > 100 | > 100 | > 100 | > 100 | > 100 |
| N#Cc1c(N2CCCC2)nsc1NCc1ccccc1 | > 100 | > 100 | > 100 | > 100 | > 100 | > 100 | > 100 | > 100 | > 100 | > 100 | > 100 | > 100 | > 100 | > 100 | > 100 | > 100 | > 100 | > 100 | > 100 |
| CCOC(=O)c1ccc(Nc2cnc3cc(C(F)(F)F)ccc3n2)cc1 | > 100 | > 100 | > 100 | > 100 | > 100 | > 100 | > 100 | > 100 | > 100 | > 100 | > 100 | > 100 | > 100 | > 100 | > 100 | > 100 | > 100 | > 100 |  |
| Cc1ccc2c3c1O[C@H]1c4[nH]c5ccccc5c4C[C@@]4(O)[C@@H](C2)N(C)CC[C@]314 |  | 25.6 | 29.5 | 35 | 23.2 | 23.1 | 31.1 | 38.2 |  |  | 30.7 | 32.9 | 31.6 | 39 | 30.1 | 36.7 |  | 31.9 | 22.7 |
| CN(C)c1ccc(/C=c2/c3ccccc3n3c2c2ccccc2[n+]3C)cc1 | 4.42 |  | 1.46 | 1.23 | 1.92 | 15.3 | 0.998 | 7.43 | 14 | 3.36 | 0.428 | 19.7 | 0.581 | 4.19 | 1.61 | 2.67 | > 38.2 | 3.12 | 4.47 |
| CCOC(=O)c1cnn2c1ncc1c(=O)n(NC(N)=O)ccc12 | > 100 | > 100 | > 100 | > 100 | > 100 | > 100 | > 100 | > 100 | > 100 | > 100 | > 100 | > 100 |  | > 100 | > 100 | > 100 | > 100 | > 100 |  |
| NCC(=O)NC1(c2cc3ccccc3s2)CCCCC1 | > 100 | 54.8 |  | 59.5 | 78.1 | 69.5 | 44.5 | > 100 | > 100 | > 100 | 86.8 | > 100 | 45.2 | > 100 | > 100 |  | > 100 | > 100 | > 100 |
| Cc1ccc(S(=O)(=O)N2CCCN(S(=O)(=O)c3ccc(C)cc3)CCN(S(=O)(=O)c3ccc(C)cc3)CCCSCC2)cc1 | > 100 | > 100 | > 100 | > 100 | > 100 | > 100 | > 100 | > 100 | > 100 |  | > 100 | > 100 | > 100 | > 100 | > 100 | > 100 | > 100 | > 100 | > 100 |
| CC1CC(C)C(O)C(C2CC(CC(=O)NC3CCCCC3)CC(=O)O2)C1 (stereo not drawn) | > 100 | > 100 | > 100 | > 100 | > 100 | > 100 |  | > 100 |  | > 100 | > 100 | > 100 | > 100 | > 100 | > 100 | > 100 | > 100 | > 100 | > 100 |
| CC(NC(=O)C(Cc1ccc(OC(=O)c2ccccc2)cc1)NC(=O)OC(C)(C)C)C(=O)NC(Cc1ccccc1)C(=O)NCC(N)=O (stereo not drawn) (Boc-Y(Bz)AFG-NH2; configuration not given here) |  | 34.4 | 35.1 | > 100 | 50.9 | 51 | 37.3 | 40.3 | 39.4 | 41.4 | 82 | 55 | 59.7 | 42.3 | > 100 | > 100 | 33.7 | 68.3 | 46.4 |
| COc1cc(Cc2cc3c(c(C(=O)O)c2Br)OCO3)cc(OC)c1OC | > 100 | > 100 | > 100 | > 100 | > 100 | > 100 | > 100 | > 100 | > 100 | > 100 | 62.2 | > 100 |  | > 100 | > 100 | > 100 | > 100 | 91.1 |  |
| C=CCOC(=O)N1[C@H]2C#C/C=C\C#C[C@]3(O)C(=O)C[C@H](C)[C@]24O[C@]43C2=CC(=O)C=CC21OC (stereo partly drawn) |  | 75.2 | > 100 | 79.5 | > 100 | > 100 | > 100 | > 100 | > 100 | 63.7 | 92.8 | > 100 | 81.5 | > 100 | > 100 | 52.9 | 47.8 | 45.8 | 47.7 |
